In PubChem BioAssay (NCI):
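Results reflect a 48-hour exposure of cells in 96-well plates to compound at five concentrations. Abbreviation: GI50, concentration required for 50% inhibition of growth. At the TGI there is no net growth.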

Columns and labels:
Assay in all cases: NCI-60 cell line screen, 48 h
A549 NSCLC = test system: A549 NSCLC
SK-MEL-2 melanoma = test system: SK-MEL-2 melanoma
OVCAR-3 ovarian = test system: OVCAR-3 ovarian
SK-OV-3 ovarian = test system: SK-OV-3 ovarian
SNB-19 CNS = test system: SNB-19 CNS
RXF 393 renal = test system: RXF 393 renal
HL-60(TB) leukemia = test system: HL-60(TB) leukemia
A498 renal = test system: A498 renal
HCT-116 colon = test system: HCT-116 colon
KM12 colon = test system: KM12 colon
SK-MEL-5 melanoma = test system: SK-MEL-5 melanoma
SW-620 colon = test system: SW-620 colon
T-47D breast = test system: T-47D breast
HT29 colon = test system: HT29 colon
CCRF-CEM leukemia = test system: CCRF-CEM leukemia
MDA-MB-468 breast = test system: MDA-MB-468 breast
UO-31 renal = test system: UO-31 renal
UACC-257 melanoma = test system: UACC-257 melanoma
M14 melanoma = test system: M14 melanoma
MOLT-4 leukemia = test system: MOLT-4 leukemia
NCI-H23 lung = test system: NCI-H23 lung
RPMI-8226 leukemia = test system: RPMI-8226 leukemia
PC-3 prostate = test system: PC-3 prostate
MALME-3M melanoma = test system: MALME-3M melanoma
SF-268 CNS = test system: SF-268 CNS
HOP-62 NSCLC = test system: HOP-62 NSCLC
LOX IMVI melanoma = test system: LOX IMVI melanoma
EKVX NSCLC = test system: EKVX NSCLC
MCF7 breast = test system: MCF7 breast
IGROV1 ovarian = test system: IGROV1 ovarian
HCT-15 colon = test system: HCT-15 colon
HCC-2998 colon = test system: HCC-2998 colon
OVCAR-4 ovarian = test system: OVCAR-4 ovarian
786-0 renal = test system: 786-0 renal
NCI-H460 lung = test system: NCI-H460 lung
SN12C renal = test system: SN12C renal
NCI/ADR-RES ovarian = test system: NCI/ADR-RES ovarian
ACHN renal = test system: ACHN renal
COLO 205 colon = test system: COLO 205 colon
U251 CNS = test system: U251 CNS
SK-MEL-28 melanoma = test system: SK-MEL-28 melanoma
MDA-MB-435 = test system: MDA-MB-435
SNB-75 CNS = test system: SNB-75 CNS
SF-295 CNS = test system: SF-295 CNS
DU-145 prostate = test system: DU-145 prostate
K-562 leukemia = test system: K-562 leukemia
NCI-H226 lung = test system: NCI-H226 lung
OVCAR-8 ovarian = test system: OVCAR-8 ovarian
HS 578T breast = test system: HS 578T breast
CAKI-1 renal = test system: CAKI-1 renal
UACC-62 melanoma = test system: UACC-62 melanoma
HOP-92 NSCLC = test system: HOP-92 NSCLC
NCI-H522 lung = test system: NCI-H522 lung
BT-549 breast = test system: BT-549 breast
SR leukemia = test system: SR leukemia
OVCAR-5 ovarian = test system: OVCAR-5 ovarian
MDA-MB-231 breast = test system: MDA-MB-231 breast
TK-10 renal = test system: TK-10 renal
SF-539 CNS = test system: SF-539 CNS

COc1cc2c3c(n(CCCNCCO)c(=O)c2cc1OC)-c1nc2c(cc1C3=O)OCO2
GI50 (A549 NSCLC): 6.72 µM | TGI (A549 NSCLC): 21.6 µM | GI50 (SK-MEL-2 melanoma): 17.7 µM | TGI (SK-MEL-2 melanoma): 33 µM | GI50 (OVCAR-3 ovarian): 5.65 µM | TGI (OVCAR-3 ovarian): 20.8 µM | GI50 (SK-OV-3 ovarian): 3.27 µM | TGI (SK-OV-3 ovarian): 12.4 µM | GI50 (SNB-19 CNS): 2.52 µM | TGI (SNB-19 CNS): 14.6 µM | GI50 (RXF 393 renal): 1.83 µM | TGI (RXF 393 renal): 7.21 µM | GI50 (HL-60(TB) leukemia): 0.64 µM | TGI (HL-60(TB) leukemia): 12.2 µM | GI50 (A498 renal): 13.4 µM | TGI (A498 renal): 27.2 µM | GI50 (HCT-116 colon): 1.25 µM | TGI (HCT-116 colon): 2.67 µM | GI50 (KM12 colon): 14.2 µM | TGI (KM12 colon): 33.2 µM | GI50 (SK-MEL-5 melanoma): 1.54 µM | TGI (SK-MEL-5 melanoma): 10.5 µM | GI50 (SW-620 colon): 2.01 µM | TGI (SW-620 colon): 16.8 µM | GI50 (T-47D breast): 1.13 µM | TGI (T-47D breast): 12.9 µM | GI50 (HT29 colon): 2.69 µM | TGI (HT29 colon): 11.3 µM | GI50 (CCRF-CEM leukemia): 0.262 µM | TGI (CCRF-CEM leukemia): 1.86 µM | GI50 (MDA-MB-468 breast): 1.41 µM | TGI (MDA-MB-468 breast): 3.21 µM | GI50 (UO-31 renal): 7.47 µM | TGI (UO-31 renal): 21.7 µM | GI50 (UACC-257 melanoma): 15.4 µM | TGI (UACC-257 melanoma): 31.2 µM | GI50 (M14 melanoma): 4.35 µM | TGI (M14 melanoma): 16.8 µM | GI50 (MOLT-4 leukemia): 0.364 µM | TGI (MOLT-4 leukemia): 34.8 µM | GI50 (NCI-H23 lung): 0.582 µM | TGI (NCI-H23 lung): 3.27 µM | GI50 (RPMI-8226 leukemia): 2.54 µM | TGI (RPMI-8226 leukemia): 14.8 µM | GI50 (PC-3 prostate): 3.06 µM | TGI (PC-3 prostate): 19.1 µM | GI50 (MALME-3M melanoma): 5.08 µM | TGI (MALME-3M melanoma): 19.6 µM | GI50 (SF-268 CNS): 3.24 µM | TGI (SF-268 CNS): 19.9 µM | GI50 (HOP-62 NSCLC): 0.416 µM | TGI (HOP-62 NSCLC): 4.48 µM | GI50 (LOX IMVI melanoma): 0.534 µM | TGI (LOX IMVI melanoma): 1.98 µM | GI50 (EKVX NSCLC): 7.47 µM | TGI (EKVX NSCLC): 21.2 µM | GI50 (MCF7 breast): 0.256 µM | TGI (MCF7 breast): 8.62 µM | GI50 (IGROV1 ovarian): 11.4 µM | TGI (IGROV1 ovarian): 26.2 µM | GI50 (HCT-15 colon): 9.17 µM | TGI (HCT-15 colon): 27.9 µM | GI50 (HCC-2998 colon): 2.14 µM | TGI (HCC-2998 colon): 13.2 µM | GI50 (OVCAR-4 ovarian): 13 µM | TGI (OVCAR-4 ovarian): 49.5 µM | GI50 (786-0 renal): 2.43 µM | TGI (786-0 renal): 11.8 µM | GI50 (NCI-H460 lung): 1.22 µM | TGI (NCI-H460 lung): 11.8 µM | GI50 (SN12C renal): 3.94 µM | TGI (SN12C renal): 16.4 µM | GI50 (NCI/ADR-RES ovarian): 58.1 µM | TGI (NCI/ADR-RES ovarian): > 100 µM | GI50 (ACHN renal): 3.46 µM | TGI (ACHN renal): 14 µM | GI50 (COLO 205 colon): 5.88 µM | TGI (COLO 205 colon): 21.9 µM | GI50 (U251 CNS): 0.82 µM | TGI (U251 CNS): 10.7 µM | GI50 (SK-MEL-28 melanoma): 13.5 µM | TGI (SK-MEL-28 melanoma): 26.9 µM | GI50 (MDA-MB-435): 8.89 µM | TGI (MDA-MB-435): 22.5 µM | GI50 (SNB-75 CNS): 0.83 µM | TGI (SNB-75 CNS): 28.2 µM | GI50 (SF-295 CNS): 0.702 µM | TGI (SF-295 CNS): 12 µM | GI50 (DU-145 prostate): 2.71 µM | TGI (DU-145 prostate): 14.1 µM | GI50 (K-562 leukemia): 1.56 µM | TGI (K-562 leukemia): 15 µM | GI50 (NCI-H226 lung): 1.54 µM | TGI (NCI-H226 lung): 6.62 µM | GI50 (OVCAR-8 ovarian): 3.61 µM | TGI (OVCAR-8 ovarian): 17.9 µM | GI50 (HS 578T breast): 11.6 µM | TGI (HS 578T breast): 31.6 µM | GI50 (CAKI-1 renal): 2.39 µM | TGI (CAKI-1 renal): 16.5 µM | GI50 (UACC-62 melanoma): 2.38 µM | TGI (UACC-62 melanoma): 12.8 µM | GI50 (HOP-92 NSCLC): 9.2 µM | TGI (HOP-92 NSCLC): 23.3 µM | GI50 (NCI-H522 lung): 0.886 µM | TGI (NCI-H522 lung): 3.04 µM | GI50 (BT-549 breast): 6.31 µM | TGI (BT-549 breast): 20.5 µM | GI50 (SR leukemia): 0.624 µM | TGI (SR leukemia): 11.3 µM | GI50 (OVCAR-5 ovarian): 4.39 µM | TGI (OVCAR-5 ovarian): 15.4 µM | GI50 (MDA-MB-231 breast): 11.3 µM | TGI (MDA-MB-231 breast): 24.5 µM | GI50 (TK-10 renal): 19 µM | TGI (TK-10 renal): 46 µM | GI50 (SF-539 CNS): 0.996 µM | TGI (SF-539 CNS): 3.24 µM
